The numbers were not newly measured in US20100172986A1, “CONTROLLED RELEASE COMPOSITION AND PREPARATION THEREOF” (LOTUS PHARMACEUTICAL CO., LTD., priority 2006, published 2010), which cites them from elsewhere.

Structures are written as SMILES.

For the series the following is noted: in adults.

Regarding `CCCC(CCC)C(=O)O` [valproic acid, 2-Propylpentanoic acid], the elimination half-life entry is “six and seventeen”.
